The values that follow come from PMC4457528, “Identification of Novel Small Molecule Inhibitors of Oncogenic RET Kinase” (PLoS ONE, 2015).

Read-outs that look alike come from different tables or passages of the source.

Experiment in all cases: KinomeScan kinase panel, single concentration 10 µM
What all share (format): binding

The target of assay [1] is T1, KinomeScan kinase panel (Homo sapiens, UniProt Q13873).
T1 construct: purchased DiscoveRx (KinomeScan)
T1 sequence (Q13873 27-1038): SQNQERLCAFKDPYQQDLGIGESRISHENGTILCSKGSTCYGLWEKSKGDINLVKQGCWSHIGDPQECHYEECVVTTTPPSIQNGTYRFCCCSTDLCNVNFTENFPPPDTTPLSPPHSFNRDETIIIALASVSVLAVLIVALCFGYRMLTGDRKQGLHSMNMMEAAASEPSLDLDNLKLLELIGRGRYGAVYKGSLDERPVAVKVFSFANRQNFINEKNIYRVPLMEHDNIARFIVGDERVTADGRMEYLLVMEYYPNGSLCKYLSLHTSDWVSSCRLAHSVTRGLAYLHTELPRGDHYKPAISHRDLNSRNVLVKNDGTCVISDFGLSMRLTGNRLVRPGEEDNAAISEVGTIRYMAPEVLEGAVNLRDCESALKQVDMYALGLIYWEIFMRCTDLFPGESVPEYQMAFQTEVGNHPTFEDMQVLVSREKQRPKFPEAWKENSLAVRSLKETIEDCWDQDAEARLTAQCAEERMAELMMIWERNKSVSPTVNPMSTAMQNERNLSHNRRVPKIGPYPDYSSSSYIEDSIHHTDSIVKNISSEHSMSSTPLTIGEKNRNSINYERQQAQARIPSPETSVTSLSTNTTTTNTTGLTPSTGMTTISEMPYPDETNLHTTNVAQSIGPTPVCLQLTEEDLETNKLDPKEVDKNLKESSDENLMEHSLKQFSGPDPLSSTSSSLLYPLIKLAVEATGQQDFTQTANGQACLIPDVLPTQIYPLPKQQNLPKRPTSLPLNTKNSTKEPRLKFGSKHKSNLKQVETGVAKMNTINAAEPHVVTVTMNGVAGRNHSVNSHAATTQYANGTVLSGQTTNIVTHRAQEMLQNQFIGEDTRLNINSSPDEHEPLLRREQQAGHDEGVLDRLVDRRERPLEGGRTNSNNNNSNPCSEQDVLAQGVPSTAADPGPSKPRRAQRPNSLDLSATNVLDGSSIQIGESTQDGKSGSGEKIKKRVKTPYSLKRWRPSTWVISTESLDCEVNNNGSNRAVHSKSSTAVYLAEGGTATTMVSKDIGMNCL
The note with it: BMPR2, 10 µM.

For assay [2], the target named is T2, KinomeScan kinase panel (Homo sapiens, UniProt Q96D53).
T2 construct: purchased DiscoveRx (KinomeScan)
T2 sequence (Q96D53 1-544): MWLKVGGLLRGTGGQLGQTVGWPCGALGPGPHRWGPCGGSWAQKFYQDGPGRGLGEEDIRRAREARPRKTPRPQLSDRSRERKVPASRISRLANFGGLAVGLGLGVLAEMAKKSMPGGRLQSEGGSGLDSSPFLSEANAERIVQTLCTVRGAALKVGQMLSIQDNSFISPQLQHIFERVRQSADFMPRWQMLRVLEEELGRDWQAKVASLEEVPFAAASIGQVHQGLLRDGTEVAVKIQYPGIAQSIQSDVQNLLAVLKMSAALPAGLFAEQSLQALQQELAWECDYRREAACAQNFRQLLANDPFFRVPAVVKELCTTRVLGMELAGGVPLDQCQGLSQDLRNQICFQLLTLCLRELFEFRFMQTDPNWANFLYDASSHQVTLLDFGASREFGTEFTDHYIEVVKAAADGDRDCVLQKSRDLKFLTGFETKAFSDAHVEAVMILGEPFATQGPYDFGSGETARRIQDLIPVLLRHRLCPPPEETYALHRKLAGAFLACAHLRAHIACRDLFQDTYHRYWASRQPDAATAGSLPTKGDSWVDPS
Particulars: ADCK4, 10 µM; read-out: score (%).

Assay [3] addresses T3, KinomeScan kinase panel (Homo sapiens, UniProt P52333).
T3 construct: purchased DiscoveRx (KinomeScan)
T3 sequence (P52333 1-1124): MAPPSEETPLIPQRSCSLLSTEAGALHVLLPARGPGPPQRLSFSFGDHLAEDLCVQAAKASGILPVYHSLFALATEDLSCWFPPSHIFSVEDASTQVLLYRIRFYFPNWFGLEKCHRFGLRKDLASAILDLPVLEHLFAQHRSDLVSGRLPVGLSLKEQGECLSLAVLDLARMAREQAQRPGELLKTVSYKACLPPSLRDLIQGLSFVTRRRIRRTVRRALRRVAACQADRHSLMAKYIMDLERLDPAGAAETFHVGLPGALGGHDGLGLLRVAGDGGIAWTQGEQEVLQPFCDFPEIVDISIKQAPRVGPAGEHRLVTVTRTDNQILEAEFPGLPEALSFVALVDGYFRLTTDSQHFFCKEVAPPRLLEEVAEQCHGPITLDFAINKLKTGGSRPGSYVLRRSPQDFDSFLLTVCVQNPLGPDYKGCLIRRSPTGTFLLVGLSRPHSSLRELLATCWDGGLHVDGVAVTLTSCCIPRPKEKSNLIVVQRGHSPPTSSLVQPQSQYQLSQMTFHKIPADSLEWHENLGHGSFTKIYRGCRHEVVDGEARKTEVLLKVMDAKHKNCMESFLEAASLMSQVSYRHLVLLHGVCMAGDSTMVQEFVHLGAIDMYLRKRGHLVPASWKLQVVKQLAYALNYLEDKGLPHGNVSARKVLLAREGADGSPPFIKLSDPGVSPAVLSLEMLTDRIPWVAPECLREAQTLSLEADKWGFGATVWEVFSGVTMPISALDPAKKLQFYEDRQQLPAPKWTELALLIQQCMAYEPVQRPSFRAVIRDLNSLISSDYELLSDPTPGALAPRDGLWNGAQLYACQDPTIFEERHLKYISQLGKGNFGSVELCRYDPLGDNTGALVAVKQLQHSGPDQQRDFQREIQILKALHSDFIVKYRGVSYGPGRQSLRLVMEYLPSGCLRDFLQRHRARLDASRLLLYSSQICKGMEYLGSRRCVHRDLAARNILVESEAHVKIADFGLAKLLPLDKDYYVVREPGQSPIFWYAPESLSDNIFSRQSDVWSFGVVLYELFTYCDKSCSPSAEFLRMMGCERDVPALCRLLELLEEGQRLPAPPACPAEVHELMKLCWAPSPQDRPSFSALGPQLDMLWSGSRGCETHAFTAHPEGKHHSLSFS
Particulars: 10 µM, read-out: score (%).

Assay [4] deals with T4, KinomeScan kinase panel (Homo sapiens, UniProt P00519, F317I).
T4 construct: purchased DiscoveRx (KinomeScan)
T4 sequence (P00519 whole entry F317I): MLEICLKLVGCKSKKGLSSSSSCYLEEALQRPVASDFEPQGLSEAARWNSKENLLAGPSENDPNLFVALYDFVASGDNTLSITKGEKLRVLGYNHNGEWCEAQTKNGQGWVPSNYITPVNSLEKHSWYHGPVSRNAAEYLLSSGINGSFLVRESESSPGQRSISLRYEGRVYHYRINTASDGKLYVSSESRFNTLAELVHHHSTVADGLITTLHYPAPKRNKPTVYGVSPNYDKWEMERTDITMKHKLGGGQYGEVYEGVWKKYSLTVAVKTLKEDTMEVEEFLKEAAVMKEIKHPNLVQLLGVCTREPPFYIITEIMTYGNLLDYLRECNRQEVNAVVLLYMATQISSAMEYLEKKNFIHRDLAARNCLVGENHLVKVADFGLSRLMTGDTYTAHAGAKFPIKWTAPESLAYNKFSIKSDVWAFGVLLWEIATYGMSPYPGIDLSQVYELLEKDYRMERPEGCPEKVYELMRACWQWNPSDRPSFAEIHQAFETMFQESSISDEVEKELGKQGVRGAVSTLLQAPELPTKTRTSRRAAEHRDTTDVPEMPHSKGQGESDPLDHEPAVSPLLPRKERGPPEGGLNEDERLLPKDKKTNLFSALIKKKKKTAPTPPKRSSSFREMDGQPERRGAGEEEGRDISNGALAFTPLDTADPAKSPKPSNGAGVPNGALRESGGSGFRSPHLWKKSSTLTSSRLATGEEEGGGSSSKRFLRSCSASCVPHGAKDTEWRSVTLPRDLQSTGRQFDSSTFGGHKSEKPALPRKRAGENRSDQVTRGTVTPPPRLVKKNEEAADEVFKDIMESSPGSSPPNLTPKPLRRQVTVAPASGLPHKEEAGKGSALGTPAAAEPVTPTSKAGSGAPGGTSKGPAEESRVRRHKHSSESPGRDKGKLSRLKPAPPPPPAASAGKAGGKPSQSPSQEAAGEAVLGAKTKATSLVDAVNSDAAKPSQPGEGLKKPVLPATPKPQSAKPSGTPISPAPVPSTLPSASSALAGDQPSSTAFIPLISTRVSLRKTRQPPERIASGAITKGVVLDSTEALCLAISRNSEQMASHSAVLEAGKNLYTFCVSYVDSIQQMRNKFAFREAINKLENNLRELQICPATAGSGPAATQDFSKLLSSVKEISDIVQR
The note with it: 10 µM, read-out: score (%).

The target of assay [5] is T5, KinomeScan kinase panel (Homo sapiens, UniProt P19784).
T5 construct: purchased DiscoveRx (KinomeScan)
T5 sequence (P19784 whole entry): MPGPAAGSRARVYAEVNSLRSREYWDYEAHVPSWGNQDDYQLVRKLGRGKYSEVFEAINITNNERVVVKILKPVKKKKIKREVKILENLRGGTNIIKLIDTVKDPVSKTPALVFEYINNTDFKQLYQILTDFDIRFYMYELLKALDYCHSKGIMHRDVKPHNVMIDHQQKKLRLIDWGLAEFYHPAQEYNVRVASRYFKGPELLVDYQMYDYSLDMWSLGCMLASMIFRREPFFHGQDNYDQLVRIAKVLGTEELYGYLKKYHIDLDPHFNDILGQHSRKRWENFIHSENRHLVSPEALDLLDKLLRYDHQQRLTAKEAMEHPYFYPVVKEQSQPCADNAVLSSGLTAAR
Particulars: CSNK2A2, 10 µM; read-out: score (%).

`CCN1CCN(Cc2ccc(NC(=O)c3ccc(C)c(NC(=O)c4cncc(-c5cccs5)c4)c3)cc2C(F)(F)F)CC1` [ALW-II-41-27]: the “score (%)” value in assay [1] is “nb (Hits values higher than 30% were considered negative (no binding: nb))”. Moreover, the remaining binding at 10 µM was above 30% in assay [2], 3.7% in assay [3] (JAK3(JH1domain-catalytic)), 0.2% in assay [4] (ABL1(F317I)) and above 30% in assay [5].
In the case of `CCN1CCN(Cc2ccc(NC(=O)c3ccc(C)c(/C=C/c4cnc5[nH]ccc5c4Cl)c3)cc2C(F)(F)F)CC1` [HG-6-63-01, (E)-3-(2-(4-chloro-1H-pyrrolo[2,3-b]pyridin-5-yl)vinyl)-N-(4-((4-ethylpiperazin-1-yl)methyl)-3-(trifluoromethyl)phenyl)-4-methylbenzamide], the “score (%)” value in assay [1] is listed as 8.2%. Besides, the remaining binding at 10 µM in assay [2] is above 30%; in assay [3] (JAK3(Kin.Dom.2)), 3.5%; in assay [4] (ABL1(F317I)) it was 0.05%; in assay [5], above 30%.
Turning to `CCN1CCN(Cc2ccc(NC(=O)c3ccc(C)c(C#Cc4cccnc4)c3)cc2C(F)(F)F)CC1` [XMD15-44], the “score (%)” value in assay [1] is reported as “nb (Hits values higher than 30% were considered negative (no binding: nb))”. For the same compound, the remaining binding at 10 µM in assay [2] is above 30%; in assay [3] (JAK3(JH1domain-catalytic)) it was 2.3%; in assay [4] (ABL1(F317I)-nonphosphorylated), 8.8%; in assay [4] (ABL1(F317I)-phosphorylated) it was 4%; in assay [5], above 30%.
